Common to all, as to assay type: biochemical
Assay [1] concerns the target PDE1A (Homo sapiens (Human), UniProt P54750). Briefly: biochemical. An excerpt:
(§1) Table 1 lists the IC50 value for inhibition of PDE1 by the compounds of the invention. […] PDE1 assays are described in the Experimental Section.

The target in assay [2] is PDE1C (Homo sapiens (Human), UniProt Q14123). Briefly: biochemical.
Text: as §1

In assay [3] the target is PDE1B (Homo sapiens (Human), UniProt Q01064). Put plainly: PDE1 inhibition assay (PDE1B). The conditions noted are these: 15 nM tritium labelled cAMP, 1 hr at room temperature, SPA beads.
Text: as §1

Setting [4] is: 15 nM tritium labelled cAMP, 1 hr at room temperature, SPA beads.

Where two headings read alike, the source gives them in different places.

Chain of PDE1C (Q14123 whole entry): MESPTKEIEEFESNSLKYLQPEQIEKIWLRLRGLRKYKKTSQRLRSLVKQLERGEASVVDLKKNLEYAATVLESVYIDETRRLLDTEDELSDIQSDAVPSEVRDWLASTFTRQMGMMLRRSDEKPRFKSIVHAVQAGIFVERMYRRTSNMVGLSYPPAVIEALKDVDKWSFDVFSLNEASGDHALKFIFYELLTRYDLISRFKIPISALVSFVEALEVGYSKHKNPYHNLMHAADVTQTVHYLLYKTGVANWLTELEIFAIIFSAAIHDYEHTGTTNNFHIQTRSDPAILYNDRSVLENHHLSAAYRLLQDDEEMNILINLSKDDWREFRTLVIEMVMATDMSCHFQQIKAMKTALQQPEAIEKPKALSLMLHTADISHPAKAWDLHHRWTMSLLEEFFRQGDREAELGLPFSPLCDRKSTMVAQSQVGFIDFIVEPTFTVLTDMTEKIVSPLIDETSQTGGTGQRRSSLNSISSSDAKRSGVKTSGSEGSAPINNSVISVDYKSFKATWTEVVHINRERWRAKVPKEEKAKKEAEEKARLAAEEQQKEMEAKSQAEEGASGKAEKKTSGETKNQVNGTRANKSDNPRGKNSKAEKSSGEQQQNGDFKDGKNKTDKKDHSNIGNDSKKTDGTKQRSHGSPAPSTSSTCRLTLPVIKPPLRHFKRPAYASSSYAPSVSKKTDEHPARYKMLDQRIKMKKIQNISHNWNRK
Chain of PDE1A (P54750 whole entry): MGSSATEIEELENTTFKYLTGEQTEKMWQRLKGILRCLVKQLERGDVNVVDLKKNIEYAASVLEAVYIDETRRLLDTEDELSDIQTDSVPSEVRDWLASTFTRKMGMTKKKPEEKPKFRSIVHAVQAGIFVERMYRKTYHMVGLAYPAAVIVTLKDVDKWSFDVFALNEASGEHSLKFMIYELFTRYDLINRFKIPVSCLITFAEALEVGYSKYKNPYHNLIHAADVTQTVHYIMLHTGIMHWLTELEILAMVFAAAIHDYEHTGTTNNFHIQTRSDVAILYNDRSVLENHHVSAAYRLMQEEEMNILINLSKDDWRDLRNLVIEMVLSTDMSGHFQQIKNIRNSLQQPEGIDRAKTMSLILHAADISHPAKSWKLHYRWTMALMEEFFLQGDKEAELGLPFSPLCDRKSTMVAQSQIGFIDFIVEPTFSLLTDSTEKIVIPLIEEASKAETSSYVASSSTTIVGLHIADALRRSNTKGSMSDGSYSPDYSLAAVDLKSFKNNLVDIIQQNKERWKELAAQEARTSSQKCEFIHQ
Chain of PDE1B (Q01064 whole entry): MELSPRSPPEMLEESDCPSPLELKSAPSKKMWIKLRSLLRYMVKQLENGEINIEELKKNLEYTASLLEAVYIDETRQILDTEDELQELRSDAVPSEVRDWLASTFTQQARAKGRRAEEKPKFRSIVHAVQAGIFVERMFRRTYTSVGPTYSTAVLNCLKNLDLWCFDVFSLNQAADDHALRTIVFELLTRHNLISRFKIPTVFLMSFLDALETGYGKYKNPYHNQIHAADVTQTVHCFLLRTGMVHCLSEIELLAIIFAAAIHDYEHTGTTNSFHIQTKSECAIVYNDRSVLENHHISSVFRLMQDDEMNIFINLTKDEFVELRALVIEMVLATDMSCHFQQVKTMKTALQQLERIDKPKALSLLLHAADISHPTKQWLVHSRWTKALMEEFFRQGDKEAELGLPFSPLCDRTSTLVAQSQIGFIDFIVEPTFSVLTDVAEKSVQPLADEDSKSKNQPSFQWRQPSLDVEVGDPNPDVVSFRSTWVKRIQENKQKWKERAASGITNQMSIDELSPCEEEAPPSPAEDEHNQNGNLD

For the molecule `[2H]C([2H])([2H])COc1ncccc1-c1cc(NCc2cccnc2OC)c2c(n1)c(C)nn2C(C)C` [Example 182, 5-(2-(ethoxy-2,2,2-d3)pyridin-3-yl)-1-isopropyl-N-((2-methoxypyridin-3-yl)methyl)-3-methyl-1H-pyrazolo[4,3-b]pyridin-7-amine], the IC50 amounted to 24 nM in assay [1]; 61 nM in assay [2]; 1.1 nM in assay [3] (PDE1B, IC50 (nM)).

With `CCOc1ncccc1-c1cc(NCc2cccnc2F)c2c(n1)c(C)nn2C(C)C` [Example 85, 5-(2-ethoxy-3-pyridyl)-N-[(2-fluoro-3-pyridyl)methyl]-1-isopropyl-3-methyl-pyrazolo[4,3-b]pyridin-7-amine], the IC50 in assay [1] (setting [4]) amounted to 8.4 nM; in assay [2] (setting [4]), 27 nM; in assay [3] (read-out: PDE1B, IC50) it was 0.22 nM.

For `CCOc1ncccc1-c1cc(NCc2cn(C)c(C)n2)c2c(n1)c(C)nn2C(C)C` [Example 51, N-((1,2-dimethyl-1H-imidazol-4-yl)methyl)-5-(2-ethoxypyridin-3-yl)-1-isopropyl-3-methyl-1H-pyrazolo[4,3-b]pyridin-7-amine 2,2,2-trifluoroacetate], the IC50 came to 53 nM in assay [1] (setting [4]); 88 nM in assay [2] (setting [4]); 9.1 nM in assay [3] (read-out: PDE1B, IC50).

Take `CCOc1ncccc1-c1cc(NCc2ccc(C)s2)c2c(n1)c(C)nn2C(C)C` [Example 36, 5-(2-ethoxy-3-pyridyl)-1-isopropyl-3-methyl-N-[(5-methyl-2-thienyl)methyl]pyrazolo[4,3-b]pyridin-7-amine]: the IC50 was 24 nM in assay [1] (setting [4]); 41 nM in assay [2] (setting [4]); 5.2 nM in assay [3] (read-out: PDE1B, IC50).

`CCOc1ncccc1-c1cc(NCc2cccnc2C(F)F)c2c(n1)c(C)nn2C(C)C` [Example 178, N-[[2-(difluoromethyl)-3-pyridyl]methyl]-5-(2-ethoxy-3-pyridyl)-1-isopropyl-3-methyl-pyrazolo[4,3-b]pyridin-7-amine]: the IC50 in assay [1] (setting [4]) came to 31 nM; in assay [2] (setting [4]), 63 nM; in assay [3] (read-out: PDE1B, IC50) it was 3.2 nM.

Turning to `CCOc1ncccc1-c1cc(NCc2cccc(C)n2)c2c(n1)c(C)nn2C(C)C` [Example 101, 5-(2-ethoxy-3-pyridyl)-1-isopropyl-3-methyl-N-[(6-methyl-2-pyridyl)methyl]pyrazolo[4,3-b]pyridin-7-amine], the IC50 in assay [1] (setting [4]) amounted to 20 nM; in assay [2] (setting [4]), 43 nM; in assay [3] (read-out: PDE1B, IC50), 0.9 nM.

With `Cc1nn(C(C)C)c2c(NCc3ncn(C)n3)cc(-c3ccc[nH]c3=O)nc12` [Example 186, 3-[1-isopropyl-3-methyl-7-[(1-methyl-1,2,4-triazol-3-yl)methylamino]pyrazolo[4,3-b]pyridin-5-yl]-1H-pyridin-2-one], the IC50 was determined as 64 nM in assay [1] (setting [4]); 130 nM in assay [2] (setting [4]); 15 nM in assay [3] (read-out: PDE1B, IC50).

For the molecule `CCOc1ncccc1-c1cc(NCc2cnn(C)c2)c2c(cnn2C(C)C)n1` [Example 25, 5-(2-ethoxy-3-pyridyl)-1-isopropyl-N-[(1-methylpyrazol-4-yl)methyl]pyrazolo[4,3-b]pyridin-7-amine], the IC50 in assay [1] (setting [4]) is 56 nM; in assay [2] (setting [4]), 150 nM; in assay [3] (read-out: PDE1B, IC50), 4.6 nM.

In the case of `CCOc1ncccc1-c1cc(NCc2cccnc2)c2c(n1)c(C)nn2C(C)C` [Example 115, 5-(2-ethoxy-3-pyridyl)-1-isopropyl-3-methyl-N-(3-pyridylmethyl)pyrazolo[4,3-b]pyridin-7-amine], the IC50 in assay [1] (setting [4]) came to 15 nM; in assay [2] (setting [4]), 31 nM; in assay [3] (read-out: PDE1B, IC50), 2 nM.

For the molecule `CCOc1ncccc1-c1cc(NCc2cccc(OC)n2)c2c(n1)c(C)nn2C(C)C` [Example 102, 5-(2-ethoxy-3-pyridyl)-1-isopropyl-N-[(6-methoxy-2-pyridyl)methyl]-3-methyl-pyrazolo[4,3-b]pyridin-7-amine], the IC50 in assay [1] (setting [4]) came out at 8 nM; in assay [2] (setting [4]), 34 nM; in assay [3] (read-out: PDE1B, IC50), 0.73 nM.

For the origin of these results see patent US10034861B2 (priority 2016, dated 2018).
